Patent US20250199015A1, “CYCLIN-DEPENDENT KINASE 2 INHIBITORS FOR MEDICAL TREATMENT” (INCYCLIX BIO, LLC, priority 2022, published 2025)
Marks after values point to notes of the source that are not given here.

Columns and labels:
[1] = Salt screen storage at 40° C./75% RH, XRPD form; type: physicochemical; conditions: ca. 24 hours
Procedure: XRPD analysis was carried out on any isolated solids or gums as described in Example 10 below. The XRPD plate, and the isolated solids, were dried at 40° C. for ca. 24 hours and re-analyzed by XRPD. The XRPD plate was further dried at 40° C./75% RH for ca. 24 hours and XRPD analysis was repeated.
After three days, observations were recorded and solids were isolated by centrifugation. The wet solids were analyzed by XRPD. Solids were dried at 40° C. under vacuum for 72 hours and re-analyzed by XRPD. Solids were dried at 40° C./75% RH for 18 hours and re-analyzed by XRPD.

[2] = tested on: T47D parental and therapy-resistant cells; assay: Cell cycle by BrdU flow cytometry in therapy-resistant cells; type: cell-based, human
Procedure: The therapy resistant cells were previously incubated with abemaciclib, fulvestrant, and/or palbociclib for prolonged periods to the point of developing drug resistance. Cells were plated in Corning 6 well tissue culture treated plates. Cells were treated for 7 days. Media was spiked with 10 μM BrdU prior to collection. Cells were washed in PBS, trypsinized, collected and centrifuged at 300 RCF for 5 mins. Cells were resuspended in cell culture media and transferred into a 96 well V-bottom plate with roughly 300,000 cells per well. Cells were then stained using the Near-IR Fixable Viability Stain (Invitrogen Cat. L34976) for 20 mins at room temperature, protected from light. Cells were fixed and permeabilized using eBioscience FoxP3/Transcription Factor Staining Buffer Set (Cat. 00-5523-00). DNA was denatured using 2N HCl+0.5% (v/v) Triton X-100 for 30 mins room temperature, agitating every 5-10 mins. The acid was neutralized using 0.1M Na2B4O7·10H2O (pH 8.5) followed by 0.5% BSA in PBS. Cells were then stained with BrdU antibody (Clone 3D4, BioLegend Cat. 364118) for 1 hour at room temperature. Prior to acquisition on the BD A3 Symphony, DNA was stained for 30 minutes using FxCycle Violet ReadyFlow Reagent.
Cell staining was then conducted to monitor cellular proliferation and perform cell cycle analysis of these therapy-resistant cells. […] Similarly, abemaciclib- and fulvestrant-resistant (LYFR) cells administered abemaciclib and fulvestrant were not substantially arrested in the G1 phase (FIG. 147H).

SHP77 cells = assay: CellTiter Glo cell proliferation assay (single agent and chemotherapy combination); type: cell-based, human; conditions: 6 days
Procedure: (§1) Plates returned to incubator for six additional days. On day six post dosing, plates were removed and treated with CellTiter Glo reagent following manufacturer's specifications. Plates incubated 45 minutes at room temperature and run on a Biotek luminometer with 1 sec/well detection. Results were converted to Microsoft Excel and transferred to GraphPad Prism for analysis.
(§2) Dose curves ranged from 300 pM to 10 μM in triplicate and treatments lasted for 6 days. Plates were removed from incubator at each specified timepoint and treated with CellTiter-Glo (Promega, Inc) following manufacturer specifications. Plates were then read on CLARIOstar luminometer with 1 sec/well integration.
as §2, with “integration. Results were converted to Microsoft Excel and transferred to GraphPad Prism for Analysis.” for “integration.”

H69 (NCIH69) cells = assay: as above; type: cell-based, human; conditions: 6 days
Procedure: as §1, §2
as §2, with “integration. Results were converted to Microsoft Excel and transferred to GraphPad Prism for Analysis.” for “integration.”

H526 cells = assay: as above; type: cell-based, human; conditions: 6 days
Procedure: as §1
Cells were plated at 250 cells per well in white wall/clear bottom plates and incubated overnight. […] Plates returned to the incubator for six additional days. On day six post dosing, plates were removed and treated with CellTiter Glo reagent following manufacturer's specifications. Plates incubated 45 minutes at room temperature and run on a Biotek luminometer with 1 sec/well detection. Results were converted to Microsoft Excel and transferred to GraphPad Prism for analysis.
as §2
as §2, with “integration. Results were converted to Microsoft Excel and transferred to GraphPad Prism for Analysis.” for “integration.”

[3] = tested on: T47D human breast carcinoma cells; assay: Crystal violet colony assay; type: cell-based; conditions: 300 nM, weeks 2-8
Procedure: (§3) The T47D human breast carcinoma cell line was grown in RPMI-1640/1× Glutamax/1× Insulin/10% fetal bovine serum and was plated at 10,000 cells/well in Corning 6-well tissue culture treated plates. Cells were incubated at 37° C. for 24 hours prior to addition of treatment. […] Plates were collected at week 2 and 3, at week 3, 2 plates with only palbociclib were switched to combination treatment. The remaining plates were collected at weeks 5 and 8. Collection was performed by washing wells with PBS before incubating 5 minutes with 0.1% crystal violet/20% methanol. Dye was removed and wells washed 4 times with PBS before being scanned at 1200 dpi. Image J was used to count the % area and colony size for each well (FIG. 8F-I). GraphPad Prism was used for analysis. Cells treated with DMSO control retained large colonies that inhabited the majority of the well surface area from week 3 beyond (FIG. 8F).
as §3, with “6 well tissue culture treated plates. The BT474 human breast carcinoma cell line was grown in DMEM/1× Glutamax/1× Insulin/10% fetal bovine serum and was plated at 25,000 cells/well in Corning 6 well” for “6-well”, “CDK4/6i” for “palbociclib”, “well. Graph pad” for “well (FIG. 8F-I). GraphPad Prism”, “analysis.” for “analysis. Cells treated with DMSO control retained large colonies that inhabited the majority of the well surface area from week 3 beyond (FIG. 8F).”
The T47D human breast carcinoma cell line was grown in RPMI-1640/1× Glutamax/1× Insulin/10% fetal bovine serum and was plated at 10,000 cells/well in Corning 6 well tissue culture treated plates. Cells were incubated at 37° C. for 24 hours prior to addition of treatment. […] Plates were collected at weeks 2 and 3. Collection was performed by washing wells with PBS before incubating 5 minutes with 0.1% crystal violet/20% methanol. Dye was removed and wells washed 4 times with PBS before being scanned at 1200 dpi. Image J was used to count the percent area and colony size for each well and Graph pad was used for analysis.

Compound: Br.NS(=O)(=O)c1ccc(Nc2ncc3cc4n(c3n2)C2(CCCCC2)C(=O)NN4)cc1 [HBr Pattern 1]
- XRPD form after storage at 40° C./75% RH [1]: loss of crystallinity

Compound: Cl.NS(=O)(=O)c1ccc(Nc2ncc3cc4n(c3n2)C2(CCCCC2)C(=O)NN4)cc1 [HCl Pattern 2]
- XRPD form after storage at 40° C./75% RH [1]: No form changes were observed

Compound: CCN1CCN(Cc2ccc(Nc3ncc(F)c(-c4cc(F)c5nc(C)n(C(C)C)c5c4)n3)nc2)CC1 [abemaciclib, reference compound]
- cell cycle arrest ([2]; abemaciclib-resistant (LYR) cells): substantially less frequently in the G1 phase
- cell cycle arrest ([2]; parental (PAR) cells): arrested parental (PAR) cell lines in the G1 phase

Compound: NS(=O)(=O)c1ccc(Nc2ncc3cc4n(c3n2)C2(CCCCC2)C(=O)NN4)cc1.O=S(=O)(O)c1ccccc1 [besylate Pattern 3]
- XRPD form after storage at 40° C./75% RH [1]: loss in crystallinity

Compound: CC[C@@]1(O)C(=O)OCc2c1cc1n(c2=O)Cc2cc3ccccc3nc2-1 [camptothecin, (S)-4-ethyl-4-hydroxy-1H-pyrano[3′,4′:6,7]indolizino[1,2-b]quinoline-3,14-(4H, 12H)-dione, reference compound]
- cellular proliferation, chemotherapeutic alone compared with Compound I alone (SHP77 cells): lower cellular proliferation IC50 values
- cellular proliferation, chemotherapeutic alone compared with Compound I alone (H69 (NCIH69) cells): lower cellular proliferation IC50 values
- cellular proliferation, chemotherapeutic alone compared with Compound I alone (H526 cells): lower cellular proliferation IC50 values

Compound: NS(=O)(=O)c1ccc(Nc2ncc3cc4n(c3n2)C2(CCCCC2)C(=O)NN4)cc1.O=C(O)CC(O)(CC(=O)O)C(=O)O [citrate Pattern 1]
- XRPD form after storage at 40° C./75% RH ([1]; listed as Citric Acid Salt Pattern 1): poorly crystalline material

Compound: NS(=O)(=O)c1ccc(Nc2ncc3cc4n(c3n2)C2(CCCCC2)C(=O)NN4)cc1.O=C(O)CC(O)(CC(=O)O)C(=O)O [citrate Pattern 2]
- XRPD form after storage at 40° C./75% RH ([1]; listed as Citric Acid Salt Pattern 2): new poorly crystalline pattern designated Pattern 4

Compound: COc1cccc2c1C(=O)c1c(O)c3c(c(O)c1C2=O)C[C@@](O)(C(=O)CO)C[C@@H]3O[C@H]1C[C@H](N)[C@H](O)[C@H](C)O1 [doxorubicin, reference compound]
- cellular proliferation, chemotherapeutic alone compared with Compound I alone (SHP77 cells): better inhibition
- cellular proliferation, chemotherapeutic alone compared with Compound I alone (H69 (NCIH69) cells): better inhibition
- cellular proliferation, chemotherapeutic alone compared with Compound I alone (H526 cells): better inhibition

Compound: NS(=O)(=O)c1ccc(Nc2ncc3cc4n(c3n2)C2(CCCCC2)C(=O)NN4)cc1.O=C(O)/C=C\C(=O)O [maleate Pattern 2]
- XRPD form after storage at 40° C./75% RH ([1]; listed as Maleic Acid Salt Pattern 2): loss of crystallinity

Compound: NS(=O)(=O)c1ccc(Nc2ncc3cc4n(c3n2)C2(CCCCC2)C(=O)NN4)cc1.O=C(O)/C=C\C(=O)O [maleate Pattern 4]
- XRPD form after storage at 40° C./75% RH ([1]; listed as Maleic Acid Salt Pattern 4): converted to Pattern 6

Compound: NS(=O)(=O)c1ccc(Nc2ncc3cc4n(c3n2)C2(CCCCC2)C(=O)NN4)cc1.O=C(O)/C=C\C(=O)O [maleate Pattern 5]
- XRPD form after storage at 40° C./75% RH ([1]; listed as Maleic Acid Salt Pattern 5): converted to Pattern 1*

Compound: CS(=O)(=O)O.NS(=O)(=O)c1ccc(Nc2ncc3cc4n(c3n2)C2(CCCCC2)C(=O)NN4)cc1 [mesylate Pattern 2]
- XRPD form after storage at 40° C./75% RH [1]: converted to Pattern 1

Compound: CS(=O)(=O)O.NS(=O)(=O)c1ccc(Nc2ncc3cc4n(c3n2)C2(CCCCC2)C(=O)NN4)cc1 [mesylate Pattern 3]
- XRPD form after storage at 40° C./75% RH [1]: converted to Pattern 1

Compound: CS(=O)(=O)O.NS(=O)(=O)c1ccc(Nc2ncc3cc4n(c3n2)C2(CCCCC2)C(=O)NN4)cc1 [mesylate Pattern 4]
- XRPD form after storage at 40° C./75% RH [1]: converted to Pattern 1

Compound: CC(=O)c1c(C)c2cnc(Nc3ccc(N4CCNCC4)cn3)nc2n(C2CCCC2)c1=O [palbociclib, reference compound]
- colony size and percent plate area [3]: cells expanded to cover a large percentage of the plate area

Compound: NS(=O)(=O)c1ccc(Nc2ncc3cc4n(c3n2)C2(CCCCC2)C(=O)NN4)cc1.O=P(O)(O)O [phosphate Pattern 6]
- XRPD form after storage at 40° C./75% RH [1]: formation of amorphous material
- XRPD form after storage at 40° C./75% RH ([1]; listed as Phosphoric Acid Salt Pattern 6): amorphous material
